Measurements reported in patent publication US8618284B2 (Wyeth LLC, priority 2008, dated 2013).

Key:
[1] = in some drug formulations; cited from earlier work
[2] = aqueous and organic solvent systems, Form A compared with Form B; cited from earlier work
[3] = upon contact with a solvent or solvent mixture (e.g., ethyl acetate and ethanol); cited from earlier work
[4] = Granulation effect on the polymorphic transformation of Form A; format: physicochemical; conditions: dry industrial batch of Form A; for % Form B after granulation: after industrial granulation; for % Form B prior to granulation: before industrial granulation
[5] = test system: ovariectomized rat model of osteopenia; conditions: cited from earlier work
[6] = test system: preclinical models of uterine stimulation; conditions: cited from earlier work
[7] = test system: MCF-7 cell line (human breast cancer cell line); conditions: cited from earlier work

Cc1c(-c2ccc(O)cc2)n(Cc2ccc(OCCN3CCCCCC3)cc2)c2ccc(O)cc12 [Form A, 1-[4-(2-azepan-1-yl-ethoxy)-benzyl]-2-(4-hydroxy-phenyl)-3-methyl-1H-indol-5-ol acetic acid]
bioavailability [1]: better bioavailability
solubility [2]: higher solubility
conversion of Form A to Form B [3]: can easily convert to Form B

Cc1c(-c2ccc(O)cc2)n(Cc2ccc(OCCN3CCCCCC3)cc2)c2ccc(O)cc12 [batch 8.4]
% Form B after granulation ([4]; listed as 8.4): 0.2%
% Form B prior to granulation ([4]; listed as 8.4): 0.3%

Cc1c(-c2ccc(O)cc2)n(Cc2ccc(OCCN3CCCCCC3)cc2)c2ccc(O)cc12 [batch 8.5]
% Form B after granulation ([4]; listed as 8.5): 0.6%
% Form B prior to granulation ([4]; listed as 8.5): 0.5%

Cc1c(-c2ccc(O)cc2)n(Cc2ccc(OCCN3CCCCCC3)cc2)c2ccc(O)cc12 [batch 8.6]
% Form B after granulation ([4]; listed as 8.6): 0.1%

Cc1c(-c2ccc(O)cc2)n(Cc2ccc(OCCN3CCCCCC3)cc2)c2ccc(O)cc12 [batch 8.7]
% Form B after granulation ([4]; listed as 8.7): 0.2%
% Form B prior to granulation ([4]; listed as 8.7): 0.3%

Cc1c(-c2ccc(O)cc2)n(Cc2ccc(OCCN3CCCCCC3)cc2)c2ccc(O)cc12 [bazedoxifene acetate, 1-[4-(2-azepan-1-yl-ethoxy)-benzyl]-2-(4-hydroxy-phenyl)-3-methyl-1H-indol-5-ol acetic acid]
effect in preventing bone loss and reducing cholesterol [5]: estrogen agonist-like effect
stimulation of uterine response [6]: little or no stimulation of uterine response
estrogen antagonist behaviour [7]: behaves as an estrogen antagonist
